The test system of assay [1] is MEIS1 mRNA expression. In words: MEIS1 mRNA expression assay (Quantigene Singleplex) in MOLM14 cells. Particulars: 48 hours incubation. It counts as cell-based, human. The essentials:
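Read-out: MEIS1 transcript counts, background-subtracted and divided by RPL28, expressed as fold change over DMSO-treated cells, then dose-response modelled for IC50. MOLM14 cells (3,750/well) received graded compound for 48 h before lysis and QuantiGene hybridization at 55 °C.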

The target of assay [2] is T1, menin/MLL (terbium chelate-labeled menin, FITC-MBM1 peptide) (Homo sapiens, UniProt O00255, T541A).
T1 construct: Menin (a.a 1-610-6xhis tag, 2.3 mg/mL in 20 mM Hepes)
T1 sequence (O00255 with tags, fused parts or gaps T541A): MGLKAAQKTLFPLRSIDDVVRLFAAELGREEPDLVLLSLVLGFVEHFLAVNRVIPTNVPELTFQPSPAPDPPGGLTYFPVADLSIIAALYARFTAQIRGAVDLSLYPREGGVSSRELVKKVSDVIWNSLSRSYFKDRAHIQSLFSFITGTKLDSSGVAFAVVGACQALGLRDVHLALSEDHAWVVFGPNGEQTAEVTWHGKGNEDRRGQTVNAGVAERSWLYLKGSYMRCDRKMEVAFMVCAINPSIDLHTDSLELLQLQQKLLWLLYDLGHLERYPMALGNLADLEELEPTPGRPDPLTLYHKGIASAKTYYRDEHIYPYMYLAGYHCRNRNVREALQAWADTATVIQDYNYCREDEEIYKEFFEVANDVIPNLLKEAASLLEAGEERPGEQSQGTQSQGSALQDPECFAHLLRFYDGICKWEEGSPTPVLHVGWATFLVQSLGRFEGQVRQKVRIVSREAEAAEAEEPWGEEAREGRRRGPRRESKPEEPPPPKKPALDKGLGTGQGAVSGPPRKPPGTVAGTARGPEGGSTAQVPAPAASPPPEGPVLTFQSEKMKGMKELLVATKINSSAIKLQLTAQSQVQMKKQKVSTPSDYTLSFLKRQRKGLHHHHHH
The experiment in a line: Menin/MLL homogenous time-resolved fluorescence (HTRF) assay. It counts as binding. Particulars: 30 min incubation. The essentials: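 Competition binding read by time-resolved FRET (FITC 520 nm over terbium 490 nm) after compound meets labeled menin 1-610-His […] for 30 min, then FITC-MBM1 (75 nM) for 15 min, ambient temperature, 0.5% DMSO. Eleven-point four-fold dilutions, usually starting at 10 μM, fitted to four-parameter curves for IC50.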
(TR-FRET usually uses a lanthanide donor and a delayed reading to cut background.)

Drawing on US20230250096A1, “SUBSTITUTED PHENYL-1H-PYRROLO[2,3-c] PYRIDINE DERIVATIVES” (Janssen Pharmaceutica NV, priority 2021, published 2023), this text covers IC50 for 14 compounds.

For `CC(=O)NC1CCC(N2CC[C@H](Cc3cn(-c4ccc(F)cc4C(=O)N(C)C(C)C)c4cncc(C)c34)C2)CC1` (stereo partly shown) [Compound 211], the IC50 (as a rule, the concentration at which inhibition is half-maximal) in assay [1] stood at 113 nM; in assay [2] it was 0.032 nM.
In the case of `CC(=O)N1CCC(CN2CCC(Cc3cn(-c4ccc(F)cc4C(=O)N(C)C(C)C)c4cncc(C)c34)C2C)CC1` (stereo not shown) [Compound 228], the results for the half-inhibitory concentration (IC50) in assay [1] and in assay [2] were 8 nM and 0.061 nM, respectively.
For `Cc1cncc2c1c(CC1CN(CC3CCOCC3)C1)cn2-c1ccc(F)cc1C(=O)N1CCC2CC21` (stereo not shown) [Compound 262], the IC50 in assay [1] (Homo sapiens, MOLM-14, 48 h) is 15 nM; in assay [2] it was 0.018 nM.
As to `Cc1cncc2c1c(CC1CN(CC3CCOCC3)C1)cn2-c1ccc(F)cc1C(=O)N1CC2CC1CO2` (stereo not shown) [Compound 264], the IC50 was found to be 25 nM in assay [1] (Homo sapiens, MOLM-14, 48 h) and 0.034 nM in assay [2].
For the compound `Cc1cncc2c1c(CC1CN(CC3CCOCC3)C1)cn2-c1ccc(F)cc1C(=O)N1CCCC1CO` (stereo not shown) [Compound 268], the IC50 in assay [1] (Homo sapiens, MOLM-14, 48 h) worked out at 37 nM; in assay [2], 0.149 nM.
As to `Cc1cncc2c1c(CC1CN(CC3CCOCC3)C1)cn2-c1ccc(F)cc1C(=O)N1CCC[C@H]1C` [Compound 279], the IC50 in assay [1] (Homo sapiens, MOLM-14, 48 h) amounted to 17 nM; in assay [2], 0.025 nM.
For `Cc1cncc2c1c(CC1CN(CC3CCOCC3)C1)cn2-c1ccc(F)cc1C(=O)N(CCO)C(C)C` [Compound 281], the IC50 in assay [1] (Homo sapiens, MOLM-14, 48 h) was determined as 13 nM; in assay [2] it was 0.058 nM.
On to `CC(=O)N1CCC(CN2CC[C@@H](Cc3cn(-c4ccc(F)cc4C(=O)N4CCC5CC54)c4cncc(C)c34)C2)CC1` (stereo partly shown) [Compound 311], for which the IC50 came out at 18 nM in assay [1] (Homo sapiens, MOLM-14, 48 h) and 0.031 nM in assay [2].
For the compound `CC(=O)N1CCC(CN2CC[C@@H](Cc3cn(-c4ccc(F)cc4C(=O)N4CC5CC4CO5)c4cncc(C)c34)C2)CC1` (stereo partly shown) [Compound 312], the IC50 in assay [1] (Homo sapiens, MOLM-14, 48 h) was found to be 55 nM; in assay [2] it was 0.058 nM.
Consider `CC(=O)N1CCC(CN2CC[C@@H](Cc3cn(-c4ccc(F)cc4C(=O)N4CCC[C@H]4C)c4cncc(C)c34)C2)CC1` [Compound 315], for which the IC50 was 37 nM in assay [1] (Homo sapiens, MOLM-14, 48 h) and 0.071 nM in assay [2].
The matching figures for `CC(=O)N1CCC(CN2CC[C@@H](Cc3cn(-c4ccc(F)cc4C(=O)N4[C@@H](C)CC[C@@H]4C)c4cncc(C)c34)C2)CC1` [Compound 316]: 29 nM and 0.055 nM.
The like results for `CC(=O)N1CCC(CN2CC[C@@H](Cc3cn(-c4ccc(F)cc4C(=O)N4CCC[C@@H]4C)c4cncc(C)c34)C2)CC1` [Compound 319] were, in that order, 240 nM and 0.293 nM.
Consider `CC(=O)N1CCC(CN2CC[C@@H](Cc3cn(-c4ccc(F)cc4C(=O)N(CC(C)O)C(C)C)c4cncc(C)c34)C2)CC1` (stereo partly shown) [Compound 320], for which the IC50 is 23 nM in assay [1] (Homo sapiens, MOLM-14, 48 h) and 0.078 nM in assay [2].
As to `Cc1cncc2c1c(C[C@@H]1CCN(CC3CCN(C(=O)C(C)C)CC3)C1)cn2-c1ccc(F)cc1C(=O)N1CCC[C@H]1CO` [Compound 328], the IC50 in assay [1] (Homo sapiens, MOLM-14, 48 h) is roughly 154 nM; in assay [2], 0.101 nM.
